Measurements from ChEMBL document CHEMBL1799950, “Antituberculosis cycloartane triterpenoids from Radermachera boniana” (J Nat Prod, 2011).
≈ marks a conversion by molar mass, not a printed value.

test system: Vero; assay: Cytotoxicity against african green monkey Vero cells after 72 hrs by MTS assay; format: cell-based; conditions: Chlorocebus sabaeus

`CC(=O)O[C@H]1CC[C@]23C[C@]24CC[C@]2(C)[C@@H]([C@H](C)CCC(=O)C(C)C)CC[C@@]2(C)[C@@H]4CC[C@H]3[C@]1(C)C(=O)O` [BONIANIC ACID B] showed an IC50 of 74.2 µM.

test system: Vero; assay: Cytotoxicity against african green monkey Vero cells at 200 uM after 72 hrs by MTS assay; format: cell-based; conditions: chlorocebus sabaeus

For `CC(C)[C@@H](C)/C=C/[C@@H](C)[C@H]1CC[C@@H]2[C@]1(C)CC[C@H]1[C@]23C=C[C@]2(C[C@@H](O)CC[C@]12C)OO3` [ERGOSTEROL PEROXIDE], the Activity was “Non-toxic”.

test system: Mycobacterium tuberculosis; assay: Antitubercular activity against Mycobacterium tuberculosis H37Rv ATCC 27294 after 7 days by microplate alamar blue assay; format: functional; conditions: H37Rv ATCC 27294, 168 h

First: C[C@H]1[C@H](C)CC[C@]2(C(=O)O)CC[C@]3(C)C(=CC[C@@H]4[C@@]5(C)CC[C@H](O)C(C)(C)[C@@H]5CC[C@]43C)[C@H]12 [URSOLIC ACID]
Second: CC1(C)CC[C@]2(C(=O)O)CC[C@]3(C)C(=CC[C@@H]4[C@@]5(C)CC[C@@H](O)C(C)(C)[C@@H]5CC[C@]43C)[C@@H]2C1
The MIC of the first is lower: 94.8 µM (≈ 43.3 µg/mL) for the first, > 200 µM for the second.

First: CC(=O)O[C@H]1CC[C@]23C[C@]24CC[C@]2(C)[C@@H]([C@H](C)CCC(=O)C(C)C)CC[C@@]2(C)[C@@H]4CC[C@H]3[C@]1(C)C(=O)O [BONIANIC ACID B]
Second: CC(=O)O[C@H]1CC[C@]23C[C@]24CC[C@]2(C)[C@@H]([C@H](C)CCC=C(C)C)CC[C@@]2(C)[C@@H]4CC[C@H]3[C@]1(C)C(=O)O [BONIANIC ACID A]
The MIC of the first is 3.5-fold lower: 9.9 µM (≈ 5.1 µg/mL) for the first, 34.8 µM (≈ 17.4 µg/mL) for the second.

`CC1(C)CC[C@]2(C(=O)O)CC[C@]3(C)C(=CC[C@@H]4[C@@]5(C)CC[C@H](O)C(C)(C)[C@@H]5CC[C@]43C)[C@@H]2C1` [OLEANOLIC_ACID] and `CC(=O)O[C@@H]1CC[C@@]2(C)[C@@H](CC[C@]3(C)[C@@H]2CC=C2[C@@H]4CC(C)(C)CC[C@]4(C)CC[C@]23C)[C@@]1(C)C(=O)O` are within 1.5-fold of each other in MIC: 96.5 µM (≈ 44.1 µg/mL) for the first, 94.8 µM (≈ 47.3 µg/mL) for the second.

First: CO[C@H]1/C=C/O[C@@]2(C)Oc3c(C)c(O)c4c(O)c(c(/C=N/N5CCN(C)CC5)c(O)c4c3C2=O)NC(=O)/C(C)=C\C=C\[C@H](C)[C@H](O)[C@@H](C)[C@@H](O)[C@@H](C)[C@H](OC(C)=O)[C@@H]1C [RIFAMPIN]
Second: CC(=O)O[C@H]1CC[C@]2(C)[C@H]3CC=C4[C@H]5[C@](C(=O)O)(CC[C@@H](C)[C@@]5(C)O)CC[C@@]4(C)[C@]3(C)C[C@@H](O)[C@H]2C1(C)C
The MIC of the first is 540-fold lower: 0.14 µM (≈ 0.115 µg/mL) for the first, 75.5 µM (≈ 40.1 µg/mL) for the second.

Compared with `CC(C)[C@@H](C)/C=C/[C@@H](C)[C@H]1CC[C@@H]2[C@]1(C)CC[C@H]1[C@]23C=C[C@]2(C[C@@H](O)CC[C@]12C)OO3` [ERGOSTEROL PEROXIDE], `CC[C@H](CC[C@@H](C)[C@H]1CC[C@H]2[C@@H]3CC=C4CC(=O)CC[C@]4(C)[C@H]3CC[C@]12C)C(C)C` [BETA-SITOSTENONE] is 11-fold higher in MIC: 3.5 µM (≈ 1.5 µg/mL) for the first, 39.5 µM (≈ 16.3 µg/mL) for the second.
